Assay results as given in ChEMBL document CHEMBL1201862, “PubChem BioAssay data set” (2004).
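Method: 48-hour compound exposure of cells in 96-well plates, five concentrations, linear interpolation of endpoints. GI50 marks 50% less growth.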 The source made the active and inactive calls. No stated cut-off is given here; in the data, active = GI50 up to about 1.1 µM and inactive = higher.

Key:
Assay in all cases: NCI tumour cell line growth inhibition, 48 h
[1] = tested on: 786-0
[2] = tested on: A549
[3] = tested on: ACHN
[4] = tested on: BT-549
[5] = tested on: CAKI-1
[6] = tested on: COLO 205
[7] = tested on: DU-145
[8] = tested on: EKVX
[9] = tested on: HCC 2998
[10] = tested on: HCT-116
[11] = tested on: HCT-15
[12] = tested on: HL-60
[13] = tested on: HOP-62
[14] = tested on: HT-29
[15] = tested on: Hs-578T
[16] = tested on: IGROV-1
[17] = tested on: K562
[18] = tested on: KM12
[19] = tested on: LOX IMVI
[20] = tested on: M14
[21] = tested on: MCF7
[22] = tested on: MDA-MB-231
[23] = tested on: MDA-MB-435
[24] = tested on: MDA-N
[25] = tested on: MOLT-4
[26] = tested on: Malme-3M
[27] = tested on: NCI-H226
[28] = tested on: NCI-H23
[29] = tested on: NCI-H460
[30] = tested on: NCI-H522
[31] = tested on: NCI/ADR-RES
[32] = tested on: OVCAR-3
[33] = tested on: OVCAR-4
[34] = tested on: OVCAR-5
[35] = tested on: OVCAR-8
[36] = tested on: PC-3
[37] = tested on: RPMI-8226
[38] = tested on: RXF 393
[39] = tested on: SF-268
[40] = tested on: SF-295
[41] = tested on: SK-MEL-28
[42] = tested on: SK-MEL-2
[43] = tested on: SK-MEL-5
[44] = tested on: SK-OV-3
[45] = tested on: SN12C
[46] = tested on: SNB-19
[47] = tested on: SNB-75
[48] = tested on: SR
[49] = tested on: SW-620
[50] = tested on: T47D
[51] = tested on: TK-10
[52] = tested on: U-251
[53] = tested on: UACC-257
[54] = tested on: UACC-62
[55] = tested on: UO-31
[56] = tested on: A498
[57] = tested on: CCRF-CEM
[58] = tested on: HOP-92
[59] = tested on: SF-539

O=C(n1[nH]c(=O)n(-c2ccc([N+](=O)[O-])cc2)c1=O)C(Cl)(Cl)Cl
GI50 [1]: > 75 µM (inactive)
GI50 [2]: > 75 µM (inactive)
GI50 [3]: > 75 µM (inactive)
GI50 [4]: > 75 µM (inactive)
GI50 [5]: > 75 µM (inactive)
GI50 [6]: > 75 µM (inactive)
GI50 [7]: > 75 µM (inactive)
GI50 [8]: > 75 µM (inactive)
GI50 [9]: > 75 µM (inactive)
GI50 [10]: > 75 µM (inactive)
GI50 [11]: > 75 µM
GI50 [12]: > 75 µM (inactive)
GI50 [13]: > 75 µM (inactive)
GI50 [14]: > 75 µM (inactive)
GI50 [15]: > 75 µM (inactive)
GI50 [16]: > 75 µM (inactive)
GI50 [17]: > 75 µM (inactive)
GI50 [18]: > 75 µM (inactive)
GI50 [19]: > 75 µM (inactive)
GI50 [20]: > 75 µM (inactive)
GI50 [21]: > 75 µM (inactive)
GI50 [22]: > 75 µM (inactive)
GI50 [23]: > 75 µM (inactive)
GI50 [24]: > 75 µM (inactive)
GI50 [25]: > 75 µM (inactive)
GI50 [26]: > 75 µM (inactive)
GI50 [27]: > 75 µM (inactive)
GI50 [28]: > 75 µM (inactive)
GI50 [29]: > 75 µM (inactive)
GI50 [30]: > 75 µM (inactive)
GI50 [31]: > 75 µM (inactive)
GI50 [32]: > 75 µM (inactive)
GI50 [33]: > 75 µM (inactive)
GI50 [34]: > 75 µM (inactive)
GI50 [35]: > 75 µM (inactive)
GI50 [36]: > 75 µM (inactive)
GI50 [37]: > 75 µM (inactive)
GI50 [38]: > 75 µM (inactive)
GI50 [39]: > 75 µM (inactive)
GI50 [40]: > 75 µM (inactive)
GI50 [41]: > 75 µM (inactive)
GI50 [42]: > 75 µM (inactive)
GI50 [43]: > 75 µM (inactive)
GI50 [44]: > 75 µM (inactive)
GI50 [45]: > 75 µM (inactive)
GI50 [46]: > 75 µM (inactive)
GI50 [47]: > 75 µM (inactive)
GI50 [48]: > 75 µM (inactive)
GI50 [49]: > 75 µM (inactive)
GI50 [50]: > 75 µM (inactive)
GI50 [51]: > 75 µM (inactive)
GI50 [52]: > 75 µM (inactive)
GI50 [53]: > 75 µM (inactive)
GI50 [54]: > 75 µM (inactive)
GI50 [55]: > 75 µM (inactive)

CC1=C(C)SC(=C2Sc3c(n(C)c(=O)[nH]c3=O)S2)S1
GI50 [1]: > 100 µM (inactive)
GI50 [56]: > 100 µM (inactive)
GI50 [2]: > 100 µM (inactive)
GI50 [3]: > 100 µM (inactive)
GI50 [4]: > 100 µM (inactive)
GI50 [5]: > 100 µM (inactive)
GI50 [57]: > 100 µM (inactive)
GI50 [6]: > 100 µM (inactive)
GI50 [7]: > 100 µM (inactive)
GI50 [8]: > 100 µM (inactive)
GI50 [9]: > 100 µM (inactive)
GI50 [10]: > 100 µM (inactive)
GI50 [11]: > 100 µM
GI50 [12]: > 100 µM (inactive)
GI50 [13]: > 100 µM (inactive)
GI50 [58]: > 100 µM (inactive)
GI50 [14]: > 100 µM (inactive)
GI50 [15]: > 100 µM (inactive)
GI50 [16]: > 100 µM (inactive)
GI50 [17]: > 100 µM (inactive)
GI50 [18]: > 100 µM (inactive)
GI50 [19]: > 100 µM (inactive)
GI50 [20]: > 100 µM (inactive)
GI50 [21]: > 100 µM (inactive)
GI50 [22]: > 100 µM (inactive)
GI50 [23]: > 100 µM (inactive)
GI50 [24]: > 100 µM (inactive)
GI50 [25]: > 100 µM (inactive)
GI50 [26]: > 100 µM (inactive)
GI50 [27]: > 100 µM (inactive)
GI50 [28]: > 100 µM (inactive)
GI50 [29]: > 100 µM (inactive)
GI50 [30]: > 100 µM (inactive)
GI50 [31]: > 100 µM (inactive)
GI50 [32]: > 100 µM (inactive)
GI50 [33]: > 100 µM (inactive)
GI50 [34]: > 100 µM (inactive)
GI50 [35]: > 100 µM (inactive)
GI50 [36]: > 100 µM (inactive)
GI50 [37]: > 100 µM (inactive)
GI50 [38]: > 100 µM (inactive)
GI50 [39]: > 100 µM (inactive)
GI50 [40]: > 100 µM (inactive)
GI50 [59]: > 100 µM (inactive)
GI50 [41]: > 100 µM (inactive)
GI50 [42]: > 100 µM (inactive)
GI50 [43]: > 100 µM (inactive)
GI50 [44]: > 100 µM (inactive)
GI50 [45]: > 100 µM (inactive)
GI50 [46]: > 100 µM (inactive)
GI50 [47]: > 100 µM (inactive)
GI50 [49]: > 100 µM (inactive)
GI50 [50]: > 100 µM (inactive)
GI50 [51]: > 100 µM (inactive)
GI50 [52]: > 100 µM (inactive)
GI50 [53]: > 100 µM (inactive)
GI50 [54]: > 100 µM (inactive)
GI50 [55]: > 100 µM (inactive)

NNC(=O)c1cc(Cl)ccc1NC(=O)C12CC3CC(CC(C3)C1)C2
GI50 [1]: 21.4 µM (inactive)
GI50 [2]: 20.2 µM (inactive)
GI50 [3]: 23.6 µM (inactive)
GI50 [4]: 37.4 µM (inactive)
GI50 [5]: 24.2 µM (inactive)
GI50 [6]: 33.6 µM (inactive)
GI50 [7]: 44.8 µM (inactive)
GI50 [9]: 18.5 µM (inactive)
GI50 [10]: 25.2 µM (inactive)
GI50 [11]: 27.8 µM
GI50 [12]: 23 µM (inactive)
GI50 [13]: 45.6 µM (inactive)
GI50 [58]: 26.3 µM (inactive)
GI50 [14]: 20.2 µM (inactive)
GI50 [15]: 31.8 µM (inactive)
GI50 [16]: 30.8 µM (inactive)
GI50 [17]: 29.2 µM (inactive)
GI50 [18]: 30.1 µM (inactive)
GI50 [19]: 32 µM (inactive)
GI50 [20]: 14.1 µM (inactive)
GI50 [21]: 27.2 µM (inactive)
GI50 [22]: 51.2 µM (inactive)
GI50 [23]: 29.3 µM (inactive)
GI50 [24]: 26.2 µM (inactive)
GI50 [25]: 12.1 µM (inactive)
GI50 [26]: 23.6 µM (inactive)
GI50 [27]: > 100 µM (inactive)
GI50 [28]: 37.6 µM (inactive)
GI50 [29]: 30.9 µM (inactive)
GI50 [30]: 25.4 µM (inactive)
GI50 [31]: 34.8 µM (inactive)
GI50 [32]: 25.5 µM (inactive)
GI50 [33]: 21.8 µM (inactive)
GI50 [34]: 15.6 µM (inactive)
GI50 [35]: 30.4 µM (inactive)
GI50 [36]: 35.3 µM (inactive)
GI50 [37]: 24 µM (inactive)
GI50 [38]: 37.8 µM (inactive)
GI50 [39]: 20.2 µM (inactive)
GI50 [40]: 39.5 µM (inactive)
GI50 [59]: 42.1 µM (inactive)
GI50 [41]: 29.9 µM (inactive)
GI50 [42]: 37.8 µM (inactive)
GI50 [43]: 25.9 µM (inactive)
GI50 [44]: 28.7 µM (inactive)
GI50 [45]: 20.5 µM (inactive)
GI50 [46]: 15.6 µM (inactive)
GI50 [47]: 42.9 µM (inactive)
GI50 [48]: 14.4 µM (inactive)
GI50 [49]: 39.6 µM (inactive)
GI50 [50]: 33 µM (inactive)
GI50 [51]: 28.4 µM (inactive)
GI50 [52]: 31.4 µM (inactive)
GI50 [53]: 29.3 µM (inactive)
GI50 [54]: 24.1 µM (inactive)
GI50 [55]: 17.1 µM (inactive)
